Laboratory results published in US7358276B2, “2-Oxo-1-pyrrolidine derivatives, processes for preparing them and their uses” (UCB, S.A., priority 2000, dated 2008).

Key:
[1] = system: audiogenic seizures in sound-susceptible mice; assay: Animal model of sound-susceptible mice (audiogenic seizures); assay type: in vivo; conditions: intraperitoneally 60 minutes before induction of audiogenic seizures; doses given in mol/kg
Excerpt: The activity of the compounds of formula I, or their pharmaceutically acceptable salts, as anticonvulsants can be determined in the audiogenic seizures model. The objective of this test is to evaluate the anticonvulsant potential of a compound by means of audiogenic seizures induced in sound-susceptible mice, a genetic animal model with reflex seizures. In this model of primary generalised epilepsy, seizures are evoked without electrical or chemical stimulation and the seizure types are, at least in part, similar in their clinical phenomenology to seizures occurring in man (Löscher W. & Schmidt D., Epilepsy Res. (1998), 2, p. 145-181; Buchhalter J. R., Epilepsia (1993), 34, S31-S41). Results obtained with compounds of formula I are indicative of a strong pharmacological effect.
The objective of this test is to evaluate the anticonvulsant potency of a compound in sound-susceptible mice, a genetic animal model with reflex seizures. In this model of primary generalised epilepsy, seizures are evoked without electrical or chemical stimulation and the seizure types are, at least in part, similar in their clinical phenomenology to seizures occuring in man (Löscher W. & Schmidt D., Epilepsy Res. (1998), 2, 145-181; Buchhalter J. R., Epilepsia (1993), 34, S31-S41).
Male or female genetically sound-sensitive mice (14-28 g; N=10), derived from a DBA strain originally selected by Dr. Lehmann of the Laboratory of Acoustic Physiology (Paris) and bred in the UCB Pharma Sector husbandry unit since 1978, are used. The experimental design consisted of several groups, one group receiving the vehicle control and the other groups different doses of the test-compound. The compounds are administered intraperitoneally 60 minutes before the induction of audiogenic seizures.
For testing, the animals are placed in small cages, one mouse per cage, in a sound-attenuated chamber. After a period of orientation of 30 seconds, the acoustic stimulus (90 dB, 10-20 kHz) is delivered for 30 seconds via loudspeakers positioned above each cage. During this interval, the mice are observed and the presence of the 3 phases of the seizure activity namely wild running, clonic and tonic convulsions, is recorded. The proportion of mice protected against wild running, clonic and tonic convulsions, respectively, is calculated.
For active compounds, an ED50 value, i.e. the dose producing 50% protection relative to the control group, together with 95% confidence limits, was calculated using a Probit Analysis (SAS/STAT® Software, version 6.09, PROBIT procedure) of the proportions of protected mice for each of the 3 phases of the seizure activity.

[2] = target: T1, Levetiracetam Binding Site (LBS), rat cerebral cortex membranes (Rattus norvegicus, UniProt Q02563); assay: LBS binding assay (competitive binding, [3H]-2-[4-(3-azidophenyl)-2-oxo-1-pyrrolidinyl]butanamide); conditions: 4° C., 120 min
T1 construct: The crude membrane pellet obtained is resuspended in 50 mmol/l Tris-HCl (pH 7.4); from tissue; host or cells: rat cerebral cortex crude membranes (male Sprague-Dawley)

[3] = A. J. GOWER et al., Eur. J. Pharmacol., 222, (1992), 193-203; cited from earlier work

T1 sequence (Q02563 whole entry): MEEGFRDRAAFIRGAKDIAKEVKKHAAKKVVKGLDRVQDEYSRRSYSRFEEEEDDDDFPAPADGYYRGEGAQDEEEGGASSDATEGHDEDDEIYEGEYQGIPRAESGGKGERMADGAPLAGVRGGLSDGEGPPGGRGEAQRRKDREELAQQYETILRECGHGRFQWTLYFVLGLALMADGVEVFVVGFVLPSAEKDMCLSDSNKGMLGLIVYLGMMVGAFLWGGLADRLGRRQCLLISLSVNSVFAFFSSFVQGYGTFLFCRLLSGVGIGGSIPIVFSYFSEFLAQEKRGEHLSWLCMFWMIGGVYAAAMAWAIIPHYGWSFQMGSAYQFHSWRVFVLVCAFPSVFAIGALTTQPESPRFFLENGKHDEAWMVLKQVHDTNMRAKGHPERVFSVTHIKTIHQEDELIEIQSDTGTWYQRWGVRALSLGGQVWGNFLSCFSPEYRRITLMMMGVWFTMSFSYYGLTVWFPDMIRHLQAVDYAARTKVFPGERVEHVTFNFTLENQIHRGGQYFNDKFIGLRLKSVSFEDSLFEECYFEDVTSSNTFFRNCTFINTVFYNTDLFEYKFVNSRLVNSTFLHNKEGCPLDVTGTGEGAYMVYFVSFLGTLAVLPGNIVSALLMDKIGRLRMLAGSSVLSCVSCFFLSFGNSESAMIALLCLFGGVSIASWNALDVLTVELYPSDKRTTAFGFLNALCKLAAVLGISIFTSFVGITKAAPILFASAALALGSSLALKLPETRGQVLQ

| SMILES | ED50 (dose producing 50% protection against audiogenic seizures) [1] | melting point [°C] | pKi (affinity for the levetiracetam binding site) [2] | activity in the treatment of epilepsy [3] |
| --- | --- | --- | --- | --- |
| CCCCC1CC(=O)N(C(CC)C(N)=O)C1 (centres unmarked) [Compound 164] | Particularly promising activity | 108.8 | Particular affinity | – |
| CCC(C(N)=O)N1CC(C=C(Br)Br)CC1=O (centres unmarked) [Compound 33] | Particularly promising activity | 134.8 | Particular affinity | – |
| CCCC1(C)CC(=O)N([C@@H](CC)C(N)=O)C1 (some centres unmarked) [Compound 250] | Particularly promising activity | 133.3 | Particular affinity | – |
| CC[C@@H](C(N)=O)N1CCCC1=O [Levetiracetam, (S)-α-ethyl-2-oxo-1-pyrrolidine acetamide] | – | – | – | effective in the treatment of epilepsy |
| CC[C@@H](C(N)=O)N1CC(CC2CC2)CC1=O (some centres unmarked) [Compound 221] | Particularly promising activity | 93.9 | Particular affinity | – |
| CC[C@@H](C(N)=O)N1CC(CI)CC1=O (some centres unmarked) [Compound 27] | Particularly promising activity | 107.7 | Particular affinity | – |
| CC[C@@H](C(N)=O)N1CC(CCC(F)(F)F)CC1=O (some centres unmarked) [Compound 215] | Particularly promising activity | 115.9 | Particular affinity | – |
| CCC(C(N)=O)N1CC(c2ccc(Cl)cc2Cl)CC1=O (centres unmarked) [Compound 188] | Particularly promising activity | 154.7 | Particular affinity | – |
| C=C[C@H]1CC(=O)N([C@@H](CC)C(N)=O)C1 [Compound 93] | Particularly promising activity | 68.3 | Particular affinity | – |
| CC[C@@H](C(N)=O)N1CC(c2ccccc2)CC1=O (some centres unmarked) [Compound 23] | Particularly promising activity | 92.4 | Particular affinity | – |
| CCC(C(N)=O)N1CC(c2ccccc2F)CC1=O (centres unmarked) [Compound 211] | Particularly promising activity | 150.9 | Particular affinity | – |
| CC[C@@H](C(N)=O)N1CC(Cn2cnnn2)CC1=O (stereo partly drawn) [Compound 40, (2S)-2-[2-oxo-4-(1H-tetrazol-1-ylmethyl)-1-pyrrolidinyl]butanamide] | Particularly promising activity | 82.3 | Particular affinity | – |
| CCC(C(N)=O)N1CC(/C=C\F)CC1=O (centres unmarked) [Compound 162] | Particularly promising activity | 105 | Particular affinity | – |
| CC[C@@H](C(N)=O)N1CC(c2cccc(Br)c2)CC1=O (some centres unmarked) [Compound 180] | Particularly promising activity | 99.6 | Particular affinity | – |
| CC[C@@H](C(N)=O)N1CC(CI)CC1=O (stereo partly drawn) [Compound 10, (2S)-2-[4-(iodomethyl)-2-oxo-1-pyrrolidinyl]butanamide] | Particularly promising activity | 91.4 | Particular affinity | – |
| CCC(C(N)=O)N1CC(c2ccccc2Br)CC1=O (centres unmarked) [Compound 95] | Particularly promising activity | 165.4 | Particular affinity | – |
| CCC(C(N)=O)N1CC(CC(C)C)CC1=O (centres unmarked) [Compound 166] | Particularly promising activity | 120.2 | Particular affinity | – |
| CC[C@H](C(N)=O)N1CCCC1=O [(R)-α-ethyl-2-oxo-1-pyrrolidine acetamide] | – | – | – | completely lacks activity |
| C=CC1CC(=O)N(C(CC)C(N)=O)C1 (centres unmarked) [Compound 41] | Particularly promising activity | 120.5 | Particular affinity | – |
| CC[C@@H](C(N)=O)N1CC(c2ccccc2)CC1=O (some centres unmarked) [Compound 22] | Particularly promising activity | 89 | Particular affinity | – |
| CCC(C(N)=O)N1CC(c2nccs2)CC1=O (centres unmarked) [Compound 64] | Particularly promising activity | 94.3 | Particular affinity | – |
| C=C[C@@H]1CC(=O)N([C@@H](CC)C(N)=O)C1 [Compound 92] | Particularly promising activity | 79 | Particular affinity | – |
| CC[C@@H](C(N)=O)N1CC(c2cc(Br)cc(Br)c2)CC1=O (some centres unmarked) [Compound 198] | Particularly promising activity | 118.6 | Particular affinity | – |
| CC[C@@H](C(N)=O)N1CC(c2cccc(N=[N+]=[N-])c2)CC1=O (some centres unmarked) [Compound 87] | Particularly promising activity | 98 | Particular affinity | – |
| CC[C@@H](C(=O)NC)N1CC(CI)CC1=O (stereo partly drawn) [Compound 146, (2S)-2-[4-(iodomethyl)-2-oxo-1-pyrrolidinyl]-N-methylbutanamide] | Particularly promising activity | 66.6 | Particular affinity | – |
| CC[C@@H](C(N)=O)N1CC(c2ccc(N=[N+]=[N-])cc2)CC1=O (some centres unmarked) [Compound 81] | Particularly promising activity | 91.4 | Particular affinity | – |
| C=CCC1CC(=O)N([C@@H](CC)C(N)=O)C1 (stereo partly drawn) [Compound 228, (2S)-2-(4-allyl-2-oxo-1-pyrrolidinyl)butanamide] | Particularly promising activity | 58.3 | Particular affinity | – |
| CC[C@@H](C(N)=O)N1CC(c2cccs2)CC1=O (stereo partly drawn) [Compound 71, (2S)-2-[2-oxo-4-(2-thienyl)-1-pyrrolidinyl]butanamide] | Particularly promising activity | 69.3 | Particular affinity | – |
| CCC(C(N)=O)N1CC(c2cccc(C)c2)CC1=O (centres unmarked) [Compound 219] | Particularly promising activity | 79.4 | Particular affinity | – |
| CCC(C(N)=O)N1CC(c2ccccc2F)CC1=O (centres unmarked) [Compound 209] | Particularly promising activity | 123.7 | Particular affinity | – |
